Measurements as given in the supplement of paper PMC8967900.

Experiments:
Test in all cases: selective drug sensitivity score (sDSS, relative to normal bone marrow) (sDSS (score)); higher = more potent and effective on the cell line relative to normal bone marrow cells
Settings in all cases: 72 h
[1] = tested on: P12-ICHIKAWA
[2] = tested on: SUP-B15
[3] = tested on: KASUMI-2
[4] = tested on: PF-382
[5] = tested on: MOLT-4
[6] = tested on: 697
[7] = tested on: COG-LL-332h
[8] = tested on: COG-LL-317
[9] = tested on: MOLT-14
[10] = tested on: MHH-CALL-2
[11] = tested on: MHH-CALL-4
[12] = tested on: COG-LL-319h
[13] = tested on: ALL-SIL
[14] = tested on: ALL-PO
[15] = tested on: NALM-6
[16] = tested on: NALL-1
[17] = tested on: COG-LL-402h
[18] = tested on: LC4-1
[19] = tested on: KASUMI-10
[20] = tested on: TANOUE
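Further: ALL cell lines in 384-well plates, five doses spanning 10,000-fold, each plate scaled between vehicle and 100 µmol/L benzalkonium chloride controls, sDSS an adapted area-under-curve metric.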

Row | SMILES | selective drug sensitivity score [1] | selective drug sensitivity score [2] | selective drug sensitivity score [3] | selective drug sensitivity score [4] | selective drug sensitivity score [5] | selective drug sensitivity score [6] | selective drug sensitivity score [7] | selective drug sensitivity score [8] | selective drug sensitivity score [9] | selective drug sensitivity score [10] | selective drug sensitivity score [11] | selective drug sensitivity score [12] | selective drug sensitivity score [13] | selective drug sensitivity score [14] | selective drug sensitivity score [15] | selective drug sensitivity score [16] | selective drug sensitivity score [17] | selective drug sensitivity score [18] | selective drug sensitivity score [19] | selective drug sensitivity score [20]
1 | COc1ccc2[nH]cc(/C=C3\C(=O)Nc4ccc(NC(=O)CCN5CCCCC5)cc43)c2c1 (top concentration 50000 nM) | -0.52 | 2.48 | -4.72 | 1.18 | -1.12 | -0.02 | 4.68 | 2.58 | 0.98 | -2.82 | -1.82 | -4.42 | 1.58 | 5.18 | -2.12 | -2.52 | 1.18 | -0.42 | 1.78 | -2.22
2 | Cc1nn(C)c(COc2ccc(N3CCN(S(=O)(=O)N(C)C)CC3)cc2)c1-c1cccc2c(CCCOc3cccc4ccccc34)c(C(=O)O)n(CCN3CCOCC3)c12 (top concentration 50000 nM) | 6.76 | 8.16 | -0.74 | 3.16 | 6.56 | 4.36 | 4.16 | 2.16 | 6.96 | 7.86 | 5.06 | 5.26 | 7.26 | 8.86 | 4.26 | 5.46 | 4.26 | 6.56 | 3.86 | 2.56
3 | C[C@H](Nc1ncnc2[nH]cnc12)c1cc2ccc(F)cc2nc1-c1ccccn1 [AMG319] (top concentration 1000 nM) | -1.42 | 0.48 | 7.58 | -1.42 | -1.42 | 0.18 | -1.42 | -1.42 | -1.42 | -1.42 | 0.68 | 10.1 | -1.42 | -1.42 | 3.68 | -1.42 | 5.88 | -1.42 | -1.42 | -0.12
4 | C=CCn1c(=O)c2cnc(Nc3ccc(N4CCN(C)CC4)cc3)nc2n1-c1cccc(C(C)(C)O)n1 [AZD1775] (top concentration 10000 nM) | 13.6 | 14.7 | 4.94 | 12.4 | 14.6 | 15.4 | 11 | 20.5 | 14.3 | 10.5 | 1.94 | 18.8 | 10 | 7.04 | 11 | 4.84 | 10.2 | 13.7 | 7.84 | -1.66
5 | NC(=O)Nc1cc(-c2cccc(F)c2)sc1C(=O)N[C@H]1CCCNC1 [AZD7762] (top concentration 1000 nM) | -0.5 | -0.4 | -4.2 | -0.5 | -1.3 | 2.6 | -0.8 | 7.6 | 0.6 | 5.1 | 0.3 | 2.8 | 0 | 9.2 | 0.6 | -2.1 | 3.3 | -0.5 | 12.9 | -5
6 | Cc1cc([C@@H](C)Nc2ccccc2C(=O)O)c2nc(N3CCOCC3)cc(=O)n2c1 [AZD-6482] (top concentration 2500 nM) | 0.42 | 2.22 | 10.2 | 2.62 | 1.52 | 3.12 | 1.32 | -0.18 | -0.28 | 2.82 | 1.92 | 13.6 | -0.28 | 3.92 | 5.62 | 7.42 | 6.52 | 3.42 | -0.28 | 0.02
7 | CN(C)Cc1c(C(=O)NCCOc2ccc(C(=O)NO)cc2)oc2ccccc12 [Abexinostat] (top concentration 10000 nM) | 4.66 | 6.26 | 8.66 | 2.86 | 3.76 | 6.96 | 0.36 | 2.36 | 7.36 | 9.06 | 6.36 | 8.36 | 6.76 | 6.76 | 2.76 | 1.06 | 13.4 | 4.36 | 6.06 | -7.54
8 | S=C(NCc1ccc2c(c1)OCO2)N1CCN(c2ncnc3c2oc2ccccc23)CC1 [Amuvatinib] (top concentration 10000 nM) | 7.46 | 5.46 | 10.8 | 5.06 | 4.66 | 7.86 | 2.96 | 0.96 | 3.56 | 3.66 | 2.16 | 5.96 | 6.66 | 1.16 | 3.86 | 2.16 | 2.36 | 4.56 | -1.44 | 6.16
